The text below walks through data of EP4671240A1, “SALT CONTAINING AROMATIC RING DERIVATIVE ANTAGONIST, PREPARATION METHOD THEREFOR, AND APPLICATION THEREOF” (Jiangsu Hansoh Pharmaceutical Group Co., Ltd., priority 2023, dated 2024).

For orientation: IC50 means the concentration at which inhibition is half-maximal.

The target in one experiment is T1, ETA receptors (Homo sapiens, UniProt P25101).
T1 construct: host or cells: HEK293
T1 sequence (P25101 21-427): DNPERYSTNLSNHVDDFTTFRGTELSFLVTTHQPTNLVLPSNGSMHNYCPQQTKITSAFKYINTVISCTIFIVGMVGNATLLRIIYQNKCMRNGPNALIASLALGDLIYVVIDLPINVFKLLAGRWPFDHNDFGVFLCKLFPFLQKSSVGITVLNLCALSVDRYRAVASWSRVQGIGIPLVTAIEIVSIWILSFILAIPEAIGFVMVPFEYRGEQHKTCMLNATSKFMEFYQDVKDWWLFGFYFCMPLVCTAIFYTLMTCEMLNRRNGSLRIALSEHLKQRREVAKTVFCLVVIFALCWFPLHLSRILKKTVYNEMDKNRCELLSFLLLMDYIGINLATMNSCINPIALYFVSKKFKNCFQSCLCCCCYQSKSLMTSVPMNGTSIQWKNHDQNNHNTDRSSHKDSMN
The experiment is described as follows: effect on calcium current in cells stably expressing ETA receptors (HEK293-ETA, FLIPR, antagonist). In kind it is cell-based. The conditions noted are these: 11 concentration points 10 µM to 0.17 nM. From the text: Test example 2. Determination of the effect of the compounds of the present invention on calcium current in cells stably expressing ETA receptors 1. Experimental objective: To test the antagonistic effect of compounds on HEK293-ETA cell activity 2. […] Experimental data processing method: FLIPR Tetra was used to read and collect the fluorescence signal value (RFU). The maximum RFU value was used to calculate the percent activation data based on the readings of the Low control (DMSO control) and High control (100 nM positive compound) experimental groups {% activation rate = (RFUsample - RFUlow control) / (RFUhigh control - RFUlow control)×100}. […]

For another experiment, the target named is T2, CYP450 3A4-M (Homo sapiens, UniProt P08684).
T2 construct: Human liver microsome incubation system was used; from tissue; host or cells: human liver microsomes
The experiment is described as follows: CYP enzyme single-point inhibition assay, 3A4-M. The experiment is classed as in vitro ADME. The conditions noted are these: human liver microsomes, single-point method. As for the experimental part:
Human liver microsome incubation system was used, and the single-point method was used to quickly predict the inhibition on CYP450 enzyme subtypes (1A2, 2C19, 2D6, 3A4-M, and 3A4-T) by compounds.
For 2.5 mM NADPH, 4.165 mg of NADPH (reduced nicotinamide adenine dinucleotide phosphate) was weighed and 100 mM phosphate buffer was added to a final volume of 2 mL. For 0.25 mg/mL microsomes, 50 µL of 20 mg/mL microsomes was mixed with […] of 100 mM phosphate buffer evenly.
The test example compounds were weighed, diluted to 10 mM with DMSO, and then diluted to 100 µM with 100 mM phosphate buffer.
• 1. Liver microsomes (40 µL), substrate (10 µL), and test compound (10 µL) were added to a 96-well plate, and the mixture was pre-incubated for 3 min. • 2. NADPH (40 µL) was added. • 3. At 20 min, acetonitrile stop solution containing internal standard (300 µL) was added. • 4. The mixture was centrifuged and the sample was loaded.
In general terms: Microsomes from liver hold many membrane-bound enzymes, among them those of drug oxidation.

T2 sequence (P08684 whole entry): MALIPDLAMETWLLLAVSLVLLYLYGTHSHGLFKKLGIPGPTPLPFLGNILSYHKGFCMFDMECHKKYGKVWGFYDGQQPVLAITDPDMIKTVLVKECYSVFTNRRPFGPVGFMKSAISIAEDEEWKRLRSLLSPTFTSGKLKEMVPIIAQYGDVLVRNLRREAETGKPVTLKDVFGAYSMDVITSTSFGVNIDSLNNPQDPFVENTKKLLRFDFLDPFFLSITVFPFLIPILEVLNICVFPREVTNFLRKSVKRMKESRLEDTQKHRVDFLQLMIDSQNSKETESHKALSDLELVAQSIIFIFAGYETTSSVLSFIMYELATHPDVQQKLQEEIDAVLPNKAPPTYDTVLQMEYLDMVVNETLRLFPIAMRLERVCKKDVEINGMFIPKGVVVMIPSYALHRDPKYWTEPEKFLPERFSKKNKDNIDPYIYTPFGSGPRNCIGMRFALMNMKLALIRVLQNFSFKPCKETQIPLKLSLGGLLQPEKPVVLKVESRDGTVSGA

For `[2H]C([2H])(c1ccc(-c2ccccc2S(=O)(=O)Nc2noc(C)c2Cl)c(COCC)c1)N1C(=O)C2(CCCC2)N=C1CCCC` [Example 2, 4'-((2-Butyl-4-oxo-1,3-diazaspiro[4.4]non-1-en-3-yl)methyl-d2)-N-(4-chloro-5-methylisoxazol-3-yl)-2'-(ethoxymethyl)-[1,1'-biphenyl]-2-sulfonamide], the figures for the IC50 at ETA receptors and against CYP450 3A4-M were 0.0151 µM and 14.7 µM, respectively.

As to `CCCCC1=NC2(CCCC2)C(=O)N1Cc1ccc(-c2ccccc2S(=O)(=O)Nc2noc(C)c2Cl)c(COCC)c1` [Example 8, 2-[4-[(2-Butyl-4-oxo-1,3-diazaspiro[4.4]non-1-en-3-yl)methyl]-2-(ethoxymethyl)phenyl]-N-(4-chloro-5-methyl-isoxazol-3-yl)benzenesulfonamide], the values for the IC50 on ETA receptors and on CYP450 3A4-M were 0.0149 µM and 24.9 µM, respectively.
